In data set [1] the target is T1, Alpha-synuclein (Homo sapiens, UniProt P37840). Description: Inhibition of alpha-syn inclusion formation in human M17D cells expressing doxycyclin-inducible alpha-syn-S3K::YFP inclusion-prone fusion protein assessed as reduction in inclusions at 1.25 to 5 uM treated with compound starting from 24 hrs post plating followed by doxycyclin addition at 48 hrs and measured 96 hrs post plating by Incucyte-based analysis. As to conditions: dose 1.25-5 µM, time 72.0 hrs. The format is cell-based.

Data set [2] addresses T1, Alpha-synuclein. As to the kind of experiment: Inhibition of alpha-synuclein (unknown origin) oligomer formation assessed as reduction in cross linking at 100 uM preincubated with compound followed by Ru(BPY3) addition and measured after 1 sec light irradiation by coomassie blue staining based PICUP assay.
The target in data set [3] is T1, Alpha-synuclein. As to the kind of experiment: Inhibition of recombinant alpha-synuclein (unknown origin) fibril formation assessed as thioflavin T fluorescence intensity at 100 uM measured every 20 mins by Thioflavin T fluorescence assay (reference value: 100 %).
The nature of data set [4]: Cytotoxicity against human M17D cells expressing doxycyclin-inducible alpha-syn-S3K::YFP inclusion-prone fusion protein assessed as reduction in cell confluency at 1.25 to 5 uM treated with compound starting from 24 hrs post plating followed by doxycyclin addition at 48 hrs and measured 96 hrs post plating by Incucyte-based analysis. The format is toxicity. As to conditions: 72 h, dose 1.25-5 µM.

SMILES strings stand for the structures. Calls of active or inactive are those of the source. The calls are words filed in the database; no cut-off is given here. Bounds are passed on as bounds.

For the compound `O=C(O)c1ccc(N2C(=O)/C(=C/c3ccc4ccccc4n3)SC2=S)cc1O`, the inhibition result on Alpha-synuclein [1] and on Alpha-synuclein [2] was “inactive” throughout. For the same compound, at Alpha-synuclein [3], the Flu intensity was over 100%. Further, the Activity result in data set [4] is on record as “Non-toxic”.

The values above are taken from ChEMBL document CHEMBL6103543, “Exploring the rhodanine universe: Design and synthesis of fluorescent rhodanine-based derivatives as anti-fibrillar and anti-oligomer agents against α-synuclein and 2N4R tau” (Bioorg Med Chem, 2024).
